Experimental data: patent US20120282187A1 (BOEHRINGER INGELHEIM INTERNATIONAL GMBH, priority 2008, published 2012)
Several values for one entry are separate records, joined by “and”; a condition that tells them apart may be missing. Identical values can stand only once. Entries after “also recorded” stand apart in the source; their conditions may differ. Like-named read-outs stand apart in the source and are kept apart here.

How the values were obtained:
[1] = Clinical pharmacokinetics and pharmacodynamics of dabigatran etexilate; assay type: in vivo
Excerpt: Ezekowitz M D, et al., Dabigatran with or without concomitant aspirin compared with warfarin alone in patients with nonvalvular atrial fibrillation (PETRO study), Am. […] The PETRO study is described below.
As noted above, management of warfarin therapy is complex, and failure to adequately monitor patients is associated with risk. […] It also interacts with many common foods, drugs and alcohol which alter its therapeutic effect, putting patients at risk of either a bleeding or thrombotic event. Therefore, warfarin therapy requires careful individualized dosing and frequent monitoring. The significant limitations of VKAs have created a need for an oral anticoagulant with a rapid onset of action, minimal drug interactions, and a predictable anticoagulation effect that needs no monitoring.
Peak levels are seen within 2-3 hours of oral administration. […] Steady-state is reached within 2-3 days with a twice daily regimen. […] The remainder undergoes conjugation with glucuronic acid to form acylglucuronides which are excreted primarily in the bile.

[2] = system: activated partial thromboplastin time (aPTT), ecarin clotting time, and thrombin clotting time; assay: Clotting time tests
Excerpt: The anticoagulant effects parallel plasma concentrations.

[3] = system: patients with atrial fibrillation
Protocol: The PETRO-Ex study was conducted in 52 centers in the United States, Denmark, The Netherlands, and Sweden.
PETRO-Ex began while the PETRO study was ongoing and investigators were initially kept blinded to patient treatment group until PETRO was completed. Unblinding investigators to patient treatment was possible thereafter.
Data were summarized descriptively; no hypothesis was to be tested. Events were analyzed on the basis of the treatment at onset. Incidences were reported as of patients with events as well as normalized to 100 patient-years on the respective treatment.
Patients who were down titrated to 50 mg q.d. based on a glomerular filtration rate≦50 mL/min during PETRO were excluded from the long-term trial; patients down-titrated in other dose levels remained on the q.d. treatment at that dose.
The total exposure reflects both trials, PETRO and PETRO-Ex, together.

[4] = system: patients with chronic atrial fibrillation; assay: PETRO phase 2 12-week dose finding study; assay type: in vivo, human; details: in vivo
Excerpt: Primary endpoints were bleeding events and changes in D-dimer. […] Minor bleeding was dose related.

[5] = system: patients with atrial fibrillation at risk of stroke; assay: RELY clinical trial (Randomized Evaluation of Long-term Anticoagulation Therapy); assay type: in vivo; details: for Stroke, systemic embolism, pulmonary embolism, myocardial infarction death or major bleed, Rate: net benefit
Excerpt: The primary study outcome was stroke or systemic embolism. The primary safety outcome was major hemorrhage. Secondary outcomes were stroke, systemic embolism and death. […] All other bleeding was considered minor.
All analyses were based on intention-to-treat.

AF patients [6] = details: ACTIVE W; cited from earlier work
AF patients [7] = details: SPORTIF III, cited from earlier work
[8] = system: patients who have nonvalvular atrial fibrillation; details: VKAs, such as warfarin; cited from earlier work
AF patients [9] = details: SPORTIF V, cited from earlier work
[10] = individual patients with LFT abnormalities, # = with concomitant Bilirubin elevation to >2xULN
[11] = ximelagatran 36 mg b.i.d. vs warfarin

SMILES: [H]/N=C(/N)c1ccc(NCc2nc3cc(C(=O)N(CCC(=O)O)c4ccccn4)ccc3n2C)cc1 [Dabigatran]
- plasma half life ([1]; after multiple doses): 12 to 17 h
- time to steady-state ([1]; human, in vivo): 2 to 3 days
- time to peak levels ([1]; oral administration): 2 to 3 h
- prolongation of activated partial thromboplastin time (aPTT), ecarin clotting time, and thrombin clotting time [2]: dose dependent prolongation
- fatal major bleeds, number ([3]; 150 mg b.i.d.): 4
- fatal major bleeds, number ([3]; 300 mg q.d.): 1
- fatal bleeding events ([3]; all doses): 0.5 % per year
- fatal major bleeds, number ([3]; all doses): five
- intracranial bleed rate ([3]; all doses): 0.4 % per year
- Final Outcome/Comment ([3]; individual patients with LFT abnormalities): Fatal; also recorded: Recovered
- LFT abnormality ALT/ULN [3, 10]: >5x (4×) and >5x^# (2×) and >3x (5×) and >3x^#
- LFT abnormality AST/ULN [3, 10]: >5x^# (4×) and >5x (4×) and >3x (5×)
- LFT abnormality resolved after stopping of dabigatran, number of cases ([3]; of the 16 on treatment cases): 5
- LFT abnormality resolved with continuation of dabigatran, number of cases ([3]; of the 16 on treatment cases): 10
- change in D-dimer levels [4]: comparable to warfarin
- Myocardial Infarction, Rate ([5]; 110 mg b.i.d.): 0.73 /100 Person Years
- Rates of hemorrhagic stroke ([5]; 110 mg b.i.d.): 0.12 % per year
- Stroke, Ischemic or Unspecified, Rate ([5]; 110 mg b.i.d.): 1.35 /100 Person Years
- net benefit-risk outcome (major vascular events, major bleeding and death) rate ([5]; 110 mg b.i.d.): 7.37 % per year
- Myocardial Infarction, Rate ([5]; 150 mg b.i.d.): 0.74 /100 Person Years
- Rates of hemorrhagic stroke ([5]; 150 mg b.i.d.): 0.10 % per year
- net benefit-risk outcome (major vascular events, major bleeding and death) rate ([5]; 150 mg b.i.d.): 7.22 % per year
- rates of stroke and systemic embolism compared to warfarin ([5]; 150 mg b.i.d.): lower rates
- First Hospitalization, RR ([5]; Dabigatran 110 mg vs. Warfarin): 0.92
- Myocardial Infarction, RR ([5]; Dabigatran 110 mg vs. Warfarin): 1.35
- Non-disabling Stroke Modified Rankin 0-2, RR ([5]; Dabigatran 110 mg vs. Warfarin): 0.87
- Pulmonary embolism, RR ([5]; Dabigatran 110 mg vs. Warfarin): 1.26
- Stroke or systemic embolism, RR ([5]; Dabigatran 110 mg vs. Warfarin): 0.91
- Stroke, Hemorrhagic, RR ([5]; Dabigatran 110 mg vs. Warfarin): 0.31
- Stroke, Ischemic or Unspecified, RR ([5]; Dabigatran 110 mg vs. Warfarin): 1.12
- Stroke, RR ([5]; Dabigatran 110 mg vs. Warfarin): 0.92
- Stroke, Ischemic or Unspecified, RR ([5]; Dabigatran 150 mg vs. 110 mg): 0.68
- Stroke, RR ([5]; Dabigatran 150 mg vs. 110 mg): 0.70
- First Hospitalization, RR ([5]; Dabigatran 150 mg vs. Warfarin): 0.97
- Myocardial Infarction, RR ([5]; Dabigatran 150 mg vs. Warfarin): 1.38
- Non-disabling Stroke Modified Rankin 0-2, RR ([5]; Dabigatran 150 mg vs. Warfarin): 0.62
- Pulmonary embolism, RR ([5]; Dabigatran 150 mg vs. Warfarin): 1.61
- Stroke or systemic embolism, RR ([5]; Dabigatran 150 mg vs. Warfarin): 0.66
- Stroke, Hemorrhagic, RR ([5]; Dabigatran 150 mg vs. Warfarin): 0.26
- Stroke, Ischemic or Unspecified, RR ([5]; Dabigatran 150 mg vs. Warfarin): 0.76
- Stroke, RR ([5]; Dabigatran 150 mg vs. Warfarin): 0.64
- primary outcome compared to warfarin ([5]; both doses (110 mg and 150 mg b.i.d.)): non-inferior to warfarin
- Stroke, systemic embolism, pulmonary embolism, myocardial infarction death or major bleed, Rate ([5]; 110 mg b.i.d.): 7.37 /100 Person Years
- Stroke, systemic embolism, pulmonary embolism, myocardial infarction death or major bleed, Rate ([5]; 150 mg b.i.d.): 7.22 /100 Person Years

SMILES: CC(=O)CC(c1ccccc1)c1c(O)c2ccccc2oc1=O (racemic) [Warfarin, 3-(α-acetonylbenzyl)4-hydroxycoumarin]
- Myocardial Infarction (AF patients [6]): 0.6% (warfarin)
- Stroke and systemic embolism (per 100 patient years) (AF patients [6]): 1.5% (warfarin)
- Myocardial Infarction (AF patients [7]; Warfarin vs. Ximelagatran): 0.6% (warfarin)
- Stroke and systemic embolism (per 100 patient years) (AF patients [7]; [11]): 2.3% (warfarin)
- reduction of the risk of stroke compared to control [8]: 64%
- Myocardial Infarction (AF patients [9]; Warfarin vs. Ximelagatran): 1.4% (warfarin)
- Stroke and systemic embolism (per 100 patient years) (AF patients [9]; [11]): 1.2% (warfarin)
- mean time in therapeutic range ([5]; INR 2.0 to 3.0, method of Rosendaal): 64%
- Stroke, systemic embolism, pulmonary embolism, myocardial infarction death or major bleed, Rate ([5]; warfarin arm): 7.99 /100 Person Years
- ALT or AST >3xULN ([5]; warfarin arm): 2.1%
- ALT or AST >3xULN with concurrent bilirubin >2xULN ([5]; warfarin arm): 0.4%
- ALT or AST >3xULN with concurrent bilirubin >2xULN, number ([5]; warfarin arm): 22
- ALT or AST >3xULN, number ([5]; warfarin arm): 126
- Adverse Event: Arthralgia ([5]; warfarin arm): 5.5%
- Adverse Event: Arthralgia, number ([5]; warfarin arm): 328
- Adverse Event: Atrial fibrillation ([5]; warfarin arm): 5.4%
- Adverse Event: Atrial fibrillation, number ([5]; warfarin arm): 326
- Adverse Event: Back pain ([5]; warfarin arm): 5.5%
- Adverse Event: Back pain, number ([5]; warfarin arm): 331
- Adverse Event: Chest pain ([5]; warfarin arm): 5.7%
- Adverse Event: Chest pain, number ([5]; warfarin arm): 342
- Adverse Event: Cough ([5]; warfarin arm): 5.8%
- Adverse Event: Cough, number ([5]; warfarin arm): 345
- Adverse Event: Diarrhea ([5]; warfarin arm): 5.5%
- Adverse Event: Diarrhea, number ([5]; warfarin arm): 327
- Adverse Event: Dizziness ([5]; warfarin arm): 9.3%
- Adverse Event: Dizziness, number ([5]; warfarin arm): 555
- Adverse Event: Dyspepsia ([5]; warfarin arm): 1.4%
- Adverse Event: Dyspepsia, number ([5]; warfarin arm): 83
- Adverse Event: Dyspnoea ([5]; warfarin arm): 9.2%
- Adverse Event: Dyspnoea, number ([5]; warfarin arm): 550
- Adverse Event: Fatigue ([5]; warfarin arm): 5.9%
- Adverse Event: Fatigue, number ([5]; warfarin arm): 353
- Adverse Event: Nasopharyngitis ([5]; warfarin arm): 5.5%
- Adverse Event: Nasopharyngitis, number ([5]; warfarin arm): 327
- Adverse Event: Peripheral edema ([5]; warfarin arm): 7.6%
- Adverse Event: Peripheral edema, number ([5]; warfarin arm): 453
- Adverse Event: Upper respiratory tract infection ([5]; warfarin arm): 5.0%
- Adverse Event: Upper respiratory tract infection, number ([5]; warfarin arm): 297
- Adverse Event: Urinary tract infection ([5]; warfarin arm): 5.3%
- Adverse Event: Urinary tract infection, number ([5]; warfarin arm): 315
- All Death, Rate ([5]; warfarin arm): 4.13 /100 Person Years
- Any Major Bleeding, Rate ([5]; warfarin arm): 3.46 /100 Person Years
- Extracranial Bleeding, Rate ([5]; warfarin arm): 2.73 /100 Person Years
- First Hospitalization, Rate ([5]; warfarin arm): 27.5 /100 Person Years
- Intracranial Bleeding, Rate ([5]; warfarin arm): 0.72 /100 Person Years
- Major Bleeding, Life threatening, Rate ([5]; warfarin arm): 1.80 /100 Person Years
- Major Bleeding, Other Major, Rate ([5]; warfarin arm): 1.80 /100 Person Years
- Major gastro-intestinal Bleeding, Rate ([5]; warfarin arm): 1.03 /100 Person Years
- Major or Minor Bleeding, Rate ([5]; warfarin arm): 23.92 /100 Person Years
- Minor Bleeding, Rate ([5]; warfarin arm): 21.03 /100 Person Years
- Mortality rates (death from any cause) ([5]; warfarin arm): 4.13 % per year
- Myocardial Infarction, Rate ([5]; warfarin arm): 0.54 /100 Person Years
- Myocardial infarction rate ([5]; warfarin arm): 0.54 % per year
- Non-disabling Stroke Modified Rankin 0-2, Rate ([5]; warfarin arm): 0.58 /100 Person Years
- Pulmonary embolism, Rate ([5]; warfarin arm): 0.09 /100 Person Years
- Rates of hemorrhagic stroke ([5]; warfarin arm): 0.38 % per year
- Rates of major hemorrhage / major bleeding ([5]; warfarin arm): 3.46 % per year
- Reason for discontinuation: Gastrointestinal bleeding ([5]; warfarin arm): XXX (0.9) %
- Reason for discontinuation: Gastrointestinal disorders (including pain, vomiting and diarrhea) ([5]; warfarin arm): XXX (0.8) %
- Reason for discontinuation: Outcome event ([5]; warfarin arm): XXX (2.2) %
- Reason for discontinuation: Patient decision ([5]; warfarin arm): XXX (6.2) %
- Reason for discontinuation: SAE ([5]; warfarin arm): 1.6%
- Reason for discontinuation: SAE, number ([5]; warfarin arm): 95
- Stroke or systemic embolism, Rate ([5]; warfarin arm): 1.70 /100 Person Years
- Stroke, Hemorrhagic, Rate ([5]; warfarin arm): 0.38 /100 Person Years
- Stroke, Rate ([5]; warfarin arm): 1.58 /100 Person Years
- Study Drug Discontinuation At one year ([5]; warfarin arm): XXXX (10) %
- Study Drug Discontinuation At two years ([5]; warfarin arm): XXXX (19) %
- Vascular Death, Rate ([5]; warfarin arm): 2.69 /100 Person Years
- hepatobiliary disorders (AE) ([5]; warfarin arm): 2.2%
- hepatobiliary disorders (AE), number ([5]; warfarin arm): 132
- hepatobiliary disorders (SAE) ([5]; warfarin arm): 0.4%
- hepatobiliary disorders (SAE), number ([5]; warfarin arm): 25
- net benefit-risk outcome (major vascular events, major bleeding and death) rate ([5]; warfarin arm): 7.99 % per year
- rates of discontinuation at 2.5 years ([5]; warfarin arm): 19%
- stroke or systemic embolism (primary outcome) rate ([5]; warfarin arm): 1.70 % per year
- Study Drug Discontinuation At one year ([5]; warfarin arm, listed as warfarin): 10%
